Source: ChEMBL document CHEMBL4373746, “Structural attributes influencing unbound tissue distribution” (Eur J Med Chem, 2020)

Columns and labels:
[1] = Total plasma concentration in Wistar Han rat at 1 to 2 mg/kg, iv infused for 10 to 20 hrs by LC-MS/MS analysis; conditions: in vivo
[2] = Drug concentration in total heart in Wistar Han rat at 1 to 2 mg/kg, iv infused for 10 to 20 hrs by LC-MS/MS analysis; conditions: in vivo
[3] = Drug concentration in total white adipose tissue in Wistar Han rat at 1 to 2 mg/kg, iv infused for 10 to 20 hrs by LC-MS/MS analysis; conditions: in vivo
[4] = Drug concentration in total skeletal muscle in Wistar Han rat at 1 to 2 mg/kg, iv infused for 10 to 20 hrs by LC-MS/MS analysis; conditions: in vivo
[5] = Unbound tissue partition coefficient, ratio of drug level in liver to plasma in Wistar Han rat at 1 to 2 mg/kg, iv infused for 10 to 20 hrs by LC-MS/MS analysis
[6] = Drug concentration in total liver in Wistar Han rat at 1 to 2 mg/kg, iv infused for 10 to 20 hrs by LC-MS/MS analysis; conditions: in vivo
[7] = Apparent permeability of the compound across dog RRCK cells by MDCK-LE assay
[8] = Unbound tissue partition coefficient, ratio of drug level in brain to plasma in mouse administered as single dose; assay type: ADME; conditions: read-out: K(p,uu,brain)
[9] = Unbound tissue partition coefficient, ratio of drug level in skeletal muscle to plasma in Wistar Han rat at 1 to 2 mg/kg, iv infused for 10 to 20 hrs by LC-MS/MS analysis
[10] = Unbound tissue partition coefficient, ratio of drug level in brain to plasma in Wistar Han rat at 1 to 2 mg/kg, iv infused for 10 to 20 hrs by LC-MS/MS analysis
[11] = Unbound tissue partition coefficient, ratio of drug level in adipose to plasma in Wistar Han rat at 1 to 2 mg/kg, iv infused for 10 to 20 hrs by LC-MS/MS analysis
[12] = Unbound tissue partition coefficient, ratio of drug level in heart to plasma in Wistar Han rat at 1 to 2 mg/kg, iv infused for 10 to 20 hrs by LC-MS/MS analysis
[13] = Drug concentration in total brain in Wistar Han rat at 1 to 2 mg/kg, iv infused for 10 to 20 hrs by LC-MS/MS analysis; conditions: in vivo
[14] = Fraction unbound in Wistar Han rat heart at 2 uM incubated for 6 hrs by equilibrium dialysis method
[15] = Fraction unbound in Wistar Han rat skeletal muscle at 2 uM incubated for 6 hrs by equilibrium dialysis method
[16] = Fraction unbound in Wistar Han rat brain at 2 uM incubated for 6 hrs by equilibrium dialysis method
[17] = Fraction unbound in Wistar Han rat plasma at 2 uM incubated for 6 hrs by equilibrium dialysis method
[18] = Fraction unbound in Wistar Han rat white adipose tissue at 2 uM incubated for 6 hrs by equilibrium dialysis method
[19] = Fraction unbound in Wistar Han rat liver at 2 uM incubated for 6 hrs by equilibrium dialysis method

Row | Structure (SMILES) | Cp [1] | Ct [2] | Ct [3] | Ct [4] | Ct [6] | Papp [7] | Ct [13] | fraction unbound at 6 h, 2 µM [14] | Kp uu ([5]; liver/plasma) | fraction unbound at 6 h, 2 µM [15] | fraction unbound at 6 h, 2 µM [16] | fraction unbound at 6 h, 2 µM [17] | Kp uu ([9]; skeletal muscle/plasma) | fraction unbound at 6 h, 2 µM [18] | Kp uu ([10]; brain/plasma) | Kp uu ([11]; adipose/plasma) | Kp uu ([12]; heart/plasma) | fraction unbound at 6 h, 2 µM [19] | further results
1 | COc1cc2nc(N3CCN(C(=O)c4ccco4)CC3)nc(N)c2cc1OC [PRAZOSIN] | 40 ng/mL | 180 ng/mL | 33 ng/mL | 100 ng/mL | 640 ng/mL | 26 ×10⁻⁶ cm/s | 11 ng/mL |  |  |  |  |  |  |  |  |  |  |  | Kp uu ([5]; other tissue): 2.8; Kp uu [8]: 0.059; Kp uu ([9]; other tissue): 0.68; Kp uu ([10]; brain): 0.11; Kp uu ([11]; other tissue): 1.2; Kp uu ([12]; other tissue): 2.4
2 | Cc1ccc(NC(=O)c2cc(Oc3ccc(S(C)(=O)=O)cc3)c3c(c2)OC(C)(C)C3)nc1 | 68 ng/mL | 220 ng/mL | 1000 ng/mL | 89 ng/mL | 150 ng/mL | 22 ×10⁻⁶ cm/s | 69 ng/mL | 0.0109 | 0.24 | 0.011 | 0.0077 | 0.0809 | 0.18 | 0.00216 | 0.1 | 0.41 | 0.43 | 0.00864 | 
3 | C[C@H](CN1CCOCC1)n1/c(=N\C(N)=O)[nH]c2cc(/C=C3\c4ccccc4COc4cc(F)ccc43)ccc21 [LY2623091] | 240 ng/mL | 620 ng/mL | 410 ng/mL | 240 ng/mL | 730 ng/mL | 0.1 ×10⁻⁶ cm/s | 31 ng/mL | 0.000104 | 5.6 | 5.36e-05 | 8.38e-05 | 0.00041 | 0.14 | 0.000192 | 0.028 | 0.87 | 0.68 | 0.000706 | 
4 | Cc1ccc(NC(=O)N2CCN(Cc3sc4ccccc4c3C)CC2)nc1 | 92 ng/mL | 130 ng/mL | 240 ng/mL | 37 ng/mL | 630 ng/mL | 25 ×10⁻⁶ cm/s | 91 ng/mL | 0.00576 | 31 | 0.0067 | 0.0099 | 0.0044 | 0.65 | 0.00709 | 2.5 | 4.8 | 1.9 | 0.0191 | 
5 | CN(C)C[C@@H](OC(=O)N1Cc2c(NC(=O)C3(C(F)(F)F)CC3)n[nH]c2C1(C)C)c1ccccc1 | 28 ng/mL | 190 ng/mL | 79 ng/mL | 97 ng/mL | 420 ng/mL | 15 ×10⁻⁶ cm/s | 2.3 ng/mL | 0.0941 | 3.3 | 0.138 | 0.0543 | 0.362 | 1.4 | 0.205 | 0.013 | 1.6 | 1.8 | 0.0749 | 
6 | COc1cc(/C=C2\CCCN([C@@H](C)c3ccc(F)cc3)C2=O)ccc1-n1cnc(C)c1 | 210 ng/mL | 360 ng/mL | 1800 ng/mL | 180 ng/mL | 1200 ng/mL | 16 ×10⁻⁶ cm/s | 150 ng/mL | 0.00363 | 7 | 0.0012 | 0.00429 | 0.00785 | 0.13 | 0.00185 | 0.4 | 2.3 | 0.77 | 0.00939 | 
7 | C[C@H]1C[C@H]2CSC(N)=N[C@@]2(c2cc(C#N)ccc2F)CO1 | 84 ng/mL | 380 ng/mL | 86 ng/mL | 240 ng/mL | 990 ng/mL | 29 ×10⁻⁶ cm/s | 230 ng/mL | 0.668 | 8.5 | 0.344 | 0.573 | 0.796 | 1.3 | 1 | 2.1 | 1.4 | 3.9 | 0.548 | 
